In patent publication US11096931B2, “Amide derivatives useful in the treatment of HBV infection or HBV-induced diseases” (Janssen Sciences Ireland Unlimited Company, priority 2019, dated 2021):
pEC50: −log10 of the molar value. Where two headings read alike, the source gives them in different places.

Assays:
HBV = assay: anti HBV activity, HepG2.117 cell line, intracellular HBV DNA by real-time PCR; assay type: cell-based, hepatitis B virus; settings: for pEC50: Hepatitis B virus, read-out: HBV-AVE-HepG2.117_intra_EC50; for improved anti-HBV activity, fold improvement over Ref. compound 59: from table 4 EC50 values
Experimental: The anti HBV activity was measured using the HepG2.117 cell line, a stable, inducible HBV producing cell line, which replicates HBV in the absence of doxicycline (Tet-off system). The HepG2 cell line is available from ATCC® under number HB-8065. Transfection of the HepG2 cell line can be as described in Sun and Nassal 2006 Journal of Hepatology 45 (2006) 636-645 “Stable HepG2-and Huh7-based human hepatoma cell lines for efficient regulated expression of infectious hepatitis B virus”.
For the antiviral assay, HBV replication was induced, followed by a treatment with serially diluted compound in 96-well plates. After 3 days of treatment, the antiviral activity was determined by quantification of intracellular HBV DNA using real-time PCR and an HBV specific primer set and probe.

[1] = Cytotoxicity, ATPlite cell viability; assay type: cell-based; settings: human, mean value, HepG2 or HepG2.117 cells
Experimental: Cytotoxicity of the compounds was tested using HepG2 or HepG2.117 cells, incubated for 4 days in the presence of compounds. The viability of the cells was assessed using the Perkin Elmer ATPlite Luminescence Assay System.”

[2] = 72 h, mean value, HepG2.117 cells, 3 days of treatment, intracellular HBV DNA

Row | SMILES | pEC50 (HBV; [2]) | CC50 at 4 days [1] | pEC50 (HBV; HepG2.117, 72 h) | improved anti-HBV activity, fold improvement over Ref. compound 59 (HBV)
1 | Cc1c(C(=O)C(=O)N[C@@]2(c3cn[nH]n3)CCC(F)(F)C2)cn(C)c1C(=O)Nc1ccc(F)c(Cl)c1 (single isomer, unassigned) [25*S] | 8.40 | 24200 nM | – | –
2 | Cn1cc(C(=O)C(=O)NC2(c3cn[nH]n3)CC(F)(F)C2)c(Cl)c1C(=O)Nc1ccc(F)c(C#N)c1 [Compound 8] | 8.22 | > 50000 nM | – | –
3 | COc1c(C(=O)C(=O)NC2(c3cn[nH]n3)CC(F)(F)C2)cn(C)c1C(=O)Nc1ccc(F)c(C#N)c1 [Compound 32] | 7.57 | 31700 nM | – | –
4 | Cc1c(C(=O)C(=O)NC2(c3cn[nH]n3)CC(F)(F)C2)cc(C(=O)Nc2ccc(F)c(C#N)c2)n1C [Compound 45] | 8.05 | > 50000 nM | – | –
5 | Cc1c(C(=O)C(=O)N[C@@H](CC(F)(F)F)c2cn[nH]n2)cn(C)c1C(=O)Nc1ccc(F)c(C#N)c1 (single isomer, unassigned) [47*S] | 7.96 | > 50000 nM | – | –
6 | Cc1nc(C2(NC(=O)C(=O)c3cc(C(=O)Nc4ccc(F)c(C#N)c4)n(C)c3)CC(F)(F)C2)n[nH]1 [Compound 22] | 6.91 | 29500 nM | – | –
7 | Cn1cc(C(=O)C(=O)NC2(c3cnnn3C)CC(F)(F)C2)c(Cl)c1C(=O)Nc1ccc(F)c(Cl)c1 [Compound 14] | 8.40 | > 50000 nM | – | –
8 | Cc1c(C(=O)C(=O)NC2(c3cn[nH]n3)CC(F)(F)C2)cn(C)c1C(=O)Nc1ccc(F)c(C#N)c1F [Compound 46] | 7.96 | > 50000 nM | – | –
9 | Cn1c(C(=O)Nc2ccc(F)c(C#N)c2)c(F)c(C(=O)C(=O)NC2(c3cn[nH]n3)CC(F)(F)C2)c1C1CC1 [Compound 52] | 8.05 | > 40600 nM | – | –
10 | Cn1cc(C(=O)C(=O)NC2(c3cn[nH]n3)CC(F)(F)C2)cc1C(=O)Nc1ccc(F)c(Cl)c1 [Compound 6] | 7.77 | 7100 nM | – | –
11 | Cn1cc(C(=O)C(=O)NC2(c3cn[nH]n3)CC(F)(F)C2)c(Cl)c1C(=O)Nc1ccc(F)c(Cl)c1 [Compound 3] | 8.22 | 22000 nM | – | –
12 | Cn1cc(C(=O)C(=O)NC2(c3cn[nH]n3)COC2)cc1C(=O)Nc1ccc(F)c(C#N)c1 [Compound 17] | 6.77 | > 50000 nM | – | –
13 | Cn1cc(C(=O)C(=O)NC(CC(F)F)c2cn[nH]n2)cc1C(=O)Nc1ccc(F)c(C#N)c1 (stereo not drawn) [Compound 24RS] | 7.22 | 22100 nM | – | –
14 | Cc1c(C(=O)C(=O)N[C@]2(c3cn[nH]n3)C[C@H](O)C2)cn(C)c1C(=O)Nc1ccc(F)c(C#N)c1 [Compound 58cis] | 7.05 | > 50000 nM | – | –
15 | Cn1cc(C(=O)C(=O)NC(CC(F)(F)F)c2cn[nH]n2)cc1C(=O)Nc1ccc(F)c(C#N)c1 (stereo not drawn) [Compound 20RS] | 7.21 | 12000 nM | – | –
16 | Cc1cc(NC(=O)c2cc(C(=O)C(=O)NC(C)(C)c3cn[nH]n3)cn2C)ccc1F [Compound 9] | 7.72 | > 50000 nM | – | –
17 | Cn1cc(C(=O)C(=O)NC2(c3ncc[nH]3)CC(F)(F)C2)cc1C(=O)Nc1ccc(F)c(C#N)c1 [Compound 43] | 6.50 | 6600 nM | – | –
18 | Cn1cc(C2(NC(=O)C(=O)c3cn(C)c(C(=O)Nc4ccc(F)c(Cl)c4)c3Cl)CC(F)(F)C2)nn1 [Compound 15] | 8.40 | > 50000 nM | – | –
19 | Cc1c(C(=O)C(=O)NC2(c3cn[nH]n3)CC(F)(F)C2)c(Cl)n(C)c1C(=O)Nc1ccc(F)c(Br)c1 [Compound 40] | 8.40 | 6600 nM | – | –
20 | Cn1cc(C(=O)C(=O)NC2(c3c[nH]nn3)CC2)cc1C(=O)Nc1ccc(F)c(C#N)c1 [Compound 10] | 6.82 | > 50000 nM | – | –
21 | Cc1c(C(=O)C(=O)NC(CC(F)F)c2cn[nH]n2)c(C)n(C)c1C(=O)Nc1ccc(F)c(C#N)c1 (stereo not drawn) [Compound 29] | 8.05 | > 50000 nM | – | –
22 | Cn1cc(C(=O)C(=O)NC2(c3nc[nH]n3)CC(F)(F)C2)cc1C(=O)Nc1ccc(F)c(C#N)c1 [Compound 30] | 6.85 | 31100 nM | – | –
23 | Cc1c(C(=O)C(=O)NC(CC(F)(F)F)c2cn[nH]n2)c(C)n(C)c1C(=O)Nc1ccc(F)c(C#N)c1 (stereo not drawn) [Compound 44RS] | 8.40 | > 50000 nM | – | –
24 | Cc1c(C(=O)C(=O)N[C@H](CC(C)(F)F)c2cn[nH]n2)cn(C)c1C(=O)Nc1ccc(F)c(C#N)c1 (single isomer, unassigned) [49*R] | 7.80 | > 50000 nM | – | –

Row | SMILES | pEC50 (HBV; [2]) | CC50 at 4 days [1] | pEC50 (HBV; HepG2.117, 72 h) | improved anti-HBV activity, fold improvement over Ref. compound 59 (HBV)
25 | Cc1c(C(=O)C(=O)NC2(c3cn[nH]n3)CC(F)(F)C2)c(F)c(C(=O)Nc2ccc(F)c(C#N)c2)n1C [Compound 42] | 8.70 | > 50000 nM | – | –
26 | Cn1cc(C(=O)C(=O)NC2(c3cn[nH]n3)CC(F)(F)C2)c(C2CC2)c1C(=O)Nc1ccc(F)c(C#N)c1 [Compound 38] | 7.62 | > 50000 nM | – | –
27 | Cc1c(C(=O)C(=O)NC2(c3cn[nH]n3)CC(F)(F)C2)c(C2CC2)n(C)c1C(=O)Nc1ccc(F)c(Cl)c1 [Compound 54] | 8.52 | 26300 nM | – | –
28 | Cn1ncc(C2(NC(=O)C(=O)c3cn(C)c(C(=O)Nc4ccc(F)c(Cl)c4)c3Cl)CC(F)(F)C2)n1 [Compound 16] | 8.52 | > 50000 nM | – | –
29 | Cn1cc(C(=O)C(=O)NC2(c3cn[nH]n3)CC(F)(F)C2)c(Br)c1C(=O)Nc1ccc(F)c(C#N)c1 [Compound 31] | 8.52 | > 50000 nM | – | –
30 | Cc1c(C(=O)C(=O)N[C@](C)(c2cn[nH]n2)C(F)F)cn(C)c1C(=O)Nc1ccc(F)c(C#N)c1 (single isomer, unassigned) [48*R] | 7.92 | > 50000 nM | – | –
31 | Cc1c(C(=O)C(=O)N[C@@H](CC(C)(F)F)c2cn[nH]n2)cn(C)c1C(=O)Nc1ccc(F)c(C#N)c1 (single isomer, unassigned) [49*S] | 7.57 | > 50000 nM | – | –
32 | Cn1cc(C(=O)C(=O)N[C@@]2(c3cn[nH]n3)C[C@@H]2C(F)F)cc1C(=O)Nc1ccc(F)c(C#N)c1 (single isomer, unassigned) [27*R*R] | 6.56 | 24300 nM | – | –
33 | Cn1cc(C(=O)C(=O)NC2(c3cn[nH]n3)CC(F)(F)C2)c(F)c1C(=O)Nc1ccc(F)c(Cl)c1 [Compound 7] | 7.96 | 13500 nM | – | –
34 | Cc1c(C(=O)C(=O)N[C@H](CC(F)(F)F)c2cn[nH]n2)c(C)n(C)c1C(=O)Nc1ccc(F)c(C#N)c1 (single isomer, unassigned) [44*R] | 8.30 | > 50000 nM | – | –
35 | Cc1c(C(=O)C(=O)N[C@@H](CC(F)(F)F)c2cn[nH]n2)cn(C)c1C(=O)Nc1ccc(F)c(Cl)c1 (single isomer, unassigned) [26*S] | 7.74 | > 50000 nM | – | –
36 | Cc1cc(NC(=O)c2cc(C(=O)C(=O)NC(C)c3cn[nH]n3)cn2C)ccc1F (stereo not drawn) [Compound 1, N-(4-Fluoro-3-methylphenyl)-1-methyl-4-(oxo{[1-(2H-1,2,3-triazol-4-yl)ethyl]amino}acetyl)-1H-pyrrole-2-carboxamide] | – | > 50000 nM | 7.29 | ~10 fold
37 | Cc1c(C(=O)C(=O)NC2(c3cn[nH]n3)CC(F)(F)C2)cn(C)c1C(=O)Nc1ccnc(C(F)F)c1 [Compound 53] | 7.48 | > 50000 nM | – | –
38 | Cn1cc(C(=O)C(=O)NC2(c3c[nH]cn3)CC(F)(F)C2)cc1C(=O)Nc1ccc(F)c(C#N)c1 [Compound 56] | 7.36 | 20000 nM | – | –
39 | Cc1c(C(=O)C(=O)N[C@]2(c3cn[nH]n3)C[C@@H](O)C2)cn(C)c1C(=O)Nc1ccc(F)c(C#N)c1 [Compound 58trans] | 7.06 | > 50000 nM | – | –
40 | Cc1c(C(=O)C(=O)N[C@@](C)(c2cn[nH]n2)C(F)F)cn(C)c1C(=O)Nc1ccc(F)c(C#N)c1 (single isomer, unassigned) [48*S] | 8.40 | > 50000 nM | – | –
41 | Cn1cc(C(=O)C(=O)N[C@@H](CC(F)F)c2cn[nH]n2)cc1C(=O)Nc1ccc(F)c(C#N)c1 (single isomer, unassigned) [24*S] | 6.25 | 28200 nM | – | –
42 | Cc1c(C(=O)C(=O)N[C@]2(c3cn[nH]n3)C[C@H](F)C2)cn(C)c1C(=O)Nc1ccc(F)c(C#N)c1 [Compound 57cis] | 7.92 | > 50000 nM | – | –
43 | Cn1cc(C(=O)C(=O)NC2(c3cn[nH]n3)CC(F)(F)C2)cc1C(=O)Nc1ccc(F)c(C#N)c1 [Compound 4] | 7.20 | 8200 nM | – | –
44 | Cn1cc(C(=O)C(=O)N[C@H](c2cnn[nH]2)C(C)(C)C)cc1C(=O)Nc1ccc(F)c(C#N)c1 (stereo in doubt) [Compound 11] | 7.00 | 26000 nM | – | –
45 | Cc1c(C(=O)C(=O)N[C@H](CC(F)(F)F)c2cn[nH]n2)cn(C)c1C(=O)Nc1ccc(F)c(C#N)c1 (single isomer, unassigned) [47*R] | 7.68 | > 50000 nM | – | –
46 | Cc1c(C(=O)C(=O)NC2(c3cn[nH]n3)CC(F)(F)C2)cn(C)c1C(=O)Nc1ccc(F)c(Br)c1 [Compound 34] | 8.40 | 26300 nM | – | –
47 | Cc1cc(NC(=O)c2cc(C(=O)C(=O)NC3(c4cn[nH]n4)CC(F)(F)C3)cn2C)ccc1F [Compound 2, 4-[{[3,3-Difluoro-1-(2H-1,2,3-triazol-4-yl)cyclobutyl]amino}(oxo)acetyl]-N-(4-fluoro-3-methylphenyl)-1-methyl-1H-pyrrole-2-carboxamide] | – | 23800 nM | 7.49 | ~18 fold
